Article PMC11651915, “Small molecule protein assembly modulators with pan-cancer therapeutic efficacy” (Open Biology, 2024)

What was measured:
[1] = tested on: A549 human lung cancer xenograft; test: A549 xenograft studies; settings: A549 xenograft, PAV-951 study, 14 days, IV; PAV-951 1.5 mg kg^−1 once daily, Gemcitabine 100 mg kg^−1 twice weekly
Hennes 20 cells = test: High density/low density 'arrest of proliferation' assay; type: cell-based, Chinese hamster; settings: Hennes 20, 72 h, AlamarBlue
NCI-H226 = test: cells; settings: Homo sapiens, NCI-H226, 48 h
LNCaP C-33 cells = test: Cell growth recovery assay; type: cell-based, human; settings: PAV-617 0.3 µM 24 h, PAV-951 0.4 µM 6 h, followed
MCF7 [2] = test: Eurofins OncoPanel (CellTiter-Glo); type: cell-based; settings: Homo sapiens, 72 h, 3 days
M14 = test: cells; type: cell-based; settings: Homo sapiens, NCI-60, 48 h
A549/ATCC = test: cells; type: cell-based; settings: Homo sapiens, NCI-60, 48 h
SF-268 = test: cells; settings: Homo sapiens, SF-268, 48 h
COLO 205 = test: cells; type: cell-based; settings: Homo sapiens, NCI-60, 48 h
HT29 = test: cells; type: cell-based; settings: Homo sapiens, HT-29, NCI-60, 48 h
[3] = tested on: BB5 patient biopsy derived cell line (breast adenocarcinoma); test: BB1 and BB5 adenoma versus carcinoma screen (confocal imaging); type: cell-based; settings: Homo sapiens, 60 h, percent ChromaLive negative
SNB-19 = test: cells; settings: Homo sapiens, SNB-19, 48 h
CAKI-1 = test: cells; type: cell-based; settings: Homo sapiens, NCI-60, 48 h
PANC-1 = test: In-house cancer cell viability screen (AlamarBlue); type: cell-based; settings: Homo sapiens, 72 h
OVCAR-5 = test: cells; settings: Homo sapiens, OVCAR-5, 48 h
786-0 = test: cells; type: cell-based; settings: Homo sapiens, NCI-60, 48 h
U2OS = test: Eurofins OncoPanel (CellTiter-Glo); type: cell-based; settings: Homo sapiens, 72 h, 3 days
NCI-H322M = test: cells; settings: Homo sapiens, 48 h
NCI-H522 = test: cells; settings: Homo sapiens, NCI-H522, 48 h
[4] = tested on: A549 human lung cancer xenograft; settings: mouse, in vivo
HT-29 = test: In-house cancer cell viability screen (AlamarBlue); type: cell-based; settings: Homo sapiens, 72 h
MDA-MB-435 = test: cells; type: cell-based; settings: Homo sapiens, NCI-60, 48 h
DB = test: Eurofins OncoPanel (CellTiter-Glo); type: cell-based; settings: Homo sapiens, 72 h, 3 days
SJSA1-OSA = test: Eurofins OncoPanel (CellTiter-Glo); type: cell-based; settings: Homo sapiens, 72 h, 3 days
MCF7 [5] = test: cells; settings: Homo sapiens, MCF7, 48 h
SK-MEL-2 = test: cells; settings: Homo sapiens, SK-MEL-2, 48 h
MeWo = test: Eurofins OncoPanel (CellTiter-Glo); settings: Homo sapiens, 72 h
HOP-92 = test: cells; settings: Homo sapiens, HOP-92, 48 h
SW-620 = test: cells; type: cell-based; settings: Homo sapiens, NCI-60, 48 h
U251 = test: cells; settings: Homo sapiens, U-251, 48 h
K-562 = test: cells; type: cell-based; settings: Homo sapiens, K562, NCI-60, 48 h
UACC-62 = test: cells; settings: Homo sapiens, UACC-62, 48 h
HCT-116 = test: cells; type: cell-based; settings: Homo sapiens, NCI-60, 48 h
LNCaP C-33 = test: In-house cancer cell viability screen (AlamarBlue); type: cell-based; settings: Homo sapiens, LnCAP-C33, 72 h
LOX IMVI = test: cells; settings: Homo sapiens, 48 h
SU-DHL-10 = test: Eurofins OncoPanel (CellTiter-Glo); type: cell-based; settings: Homo sapiens, SU-DHL10, 72 h, 3 days
MDA-MB-231/ATCC = test: cells; settings: Homo sapiens, MDA-MB-231, 48 h
TK-10 = test: cells; settings: Homo sapiens, TK-10, 48 h
A172 = test: Eurofins OncoPanel (CellTiter-Glo); type: cell-based; settings: Homo sapiens, A 172, 72 h, 3 days
SF-295 = test: cells; settings: Homo sapiens, SF-295, 48 h
RXF 393 = test: cells; settings: Homo sapiens, RXF 393, 48 h
T-47D = test: cells; type: cell-based; settings: Homo sapiens, T47D, NCI-60, 48 h

CC(C)CCNc1ncnc2cc(N3CCN(c4ccc5c(NCCC(C)C)ncnc5c4)CC3)ccc12 [PAV-951]
tumour growth inhibition (TGI) [1]: 72% | inhibitory effect at low (500 cells per well) versus high (15 000 cells per well) density (Hennes 20 cells): difference between their inhibitory effects on low and high density-plated Hennes 20 cells | GI50 (NCI-H226): 1.76 µM | CC50 (NCI-H226; read-out: LC50): 6.81 µM | recovery of cell growth after removal of compound (LNCaP C-33 cells): did not recover | IC50 (MCF7 [2]): 1.99 µM | GI50 (M14): 0.533 µM | GI50 (A549/ATCC): 0.302 µM | GI50 (SF-268): 0.217 µM | CC50 (SF-268; read-out: LC50): 2.01 µM | GI50 (COLO 205): 0.61 µM | GI50 (HT29): 0.345 µM | IC50 [3]: 0.5 µM | GI50 (SNB-19): 1.17 µM | CC50 (SNB-19; read-out: LC50): 5.18 µM | GI50 (CAKI-1): 0.311 µM | IC50 (PANC-1): 0.244 µM | GI50 (OVCAR-5): 1.08 µM | CC50 (OVCAR-5; read-out: LC50): 4.83 µM | GI50 (786-0): 0.339 µM | IC50 (U2OS): 0.368 µM | GI50 (NCI-H322M): 1.2 µM | CC50 (NCI-H322M; read-out: LC50): 5.55 µM | GI50 (NCI-H522): 1.77 µM | CC50 (NCI-H522; read-out: LC50): 6.95 µM | adverse effects at the doses of the xenograft studies [4]: without any serious adverse effects | IC50 (HT-29): 0.101 µM | GI50 (MDA-MB-435): 0.273 µM | IC50 (DB): 0.895 µM | IC50 (SJSA1-OSA): 0.724 µM | GI50 (MCF7 [5]): 0.177 µM | CC50 (MCF7 [5]; read-out: LC50): 0.924 µM | GI50 (SK-MEL-2): 1.65 µM | CC50 (SK-MEL-2; read-out: LC50): 5.91 µM | IC50 (MeWo): 1.18 µM | GI50 (HOP-92): 1.23 µM | CC50 (HOP-92; read-out: LC50): 6.22 µM | GI50 (SW-620): 0.194 µM | GI50 (U251): 0.213 µM | CC50 (U251; read-out: LC50): 0.91 µM | GI50 (K-562): 0.131 µM | GI50 (UACC-62): 1.38 µM | CC50 (UACC-62; read-out: LC50): 5.61 µM | GI50 (HCT-116): 0.185 µM | IC50 (LNCaP C-33): 0.542 µM | GI50 (LOX IMVI): 0.183 µM | CC50 (LOX IMVI; read-out: LC50): 0.684 µM | IC50 (SU-DHL-10): 0.231 µM | GI50 (MDA-MB-231/ATCC): 0.488 µM | CC50 (MDA-MB-231/ATCC; read-out: LC50): 4.42 µM | GI50 (TK-10): 2.16 µM | CC50 (TK-10; read-out: LC50): 6.14 µM | IC50 (A172): 1.02 µM | GI50 (SF-295): 1.64 µM | CC50 (SF-295; read-out: LC50): 5.59 µM | GI50 (RXF 393): 0.448 µM | GI50 (T-47D): 0.952 µM
